From ChEMBL document CHEMBL3046379, “Differential activity against aphid settling of flavones obtained from Clytostoma callistegioides (Bignoniaceae)” (2013)

How the values were obtained:
Format in all cases: functional
Rhopalosiphum padi [1] = assay: Anti-settling activity against Rhopalosiphum padi in compound treated barley [Hordeum vulgare L. (Poaceae)] foliage leaf assessed as aphids settled on leaf at 50 ug/cm'2 measured 24 hr (reference value: 55 +/- 4 to 90 +/- 3%)
Myzus persicae [2] = assay: Anti-settling activity against Myzus persicae (green peach aphid) in compound treated bell pepper leaf assessed as aphids settled on leaf at 50 ug/cm'2 measured 24 hr (reference value: 52 +/- 7 to 75 +/- 4%)
Rhopalosiphum padi [3] = assay: Anti-settling activity against Rhopalosiphum padi in compound treated barley [Hordeum vulgare L. (Poaceae)] foliage leaf assessed as preference index at 50 ug/cm'2 measured 24 hr
Myzus persicae [4] = assay: Anti-settling activity against Myzus persicae (green peach aphid) in compound treated bell pepper leaf assessed as preference index at 50 ug/cm'2 measured 24 hr

Structure (SMILES) | Activity (Rhopalosiphum padi [1]) [%] | Activity (Myzus persicae [2]) [%] | Ratio (Rhopalosiphum padi [3]) | Ratio (Myzus persicae [4])
COc1c(O)cc(O)c2c(=O)cc(-c3ccc(O)cc3)oc12 [4'-HYDROXYWOGONIN] | 44 | 48 | 0.1 | 0
COc1ccc(-c2cc(=O)c3c(O)cc(O)cc3o2)cc1 [ACACETIN] | 34 | 44 | 0.3 | 0.1
COc1ccc(-c2cc(=O)c3c(O)cc(O)c(OC)c3o2)cc1 [GALANGUSTIN] | 10 | 29 | 0.8 | 0.4
